Data set [1] is described as follows: UV absorption: molar extinction coefficient. In kind it is physicochemical. The procedure: Ethyl p-methoxy cinnamate (206.0 g, 1.0 mole), […] (306.0 g, 3.0 mole) and sodium methoxide (2.0 g) were charged in a pressure reactor. The air inside the reactor was flushed out by purging of nitrogen. The reaction mixture was then stirred at 180° C. (this generated pressure of 18 kg/cm^2) for 36 hours. The progress of reaction was monitored by disappearance of ethyl p-methoxy cinnamate on chromatography (TLC and HPLC). The TLC was performed on aluminium coated silica gel plates (Merck-60-F-254) and viewed with a UV lamp at 254 nm. HPLC was performed using reversed phase technique on a C-18 bonded (octadecyl silane) column and 60% aqueous methanol as mobile phase (1.0 ml/min) and detection at 280 nm. The excess amine was removed under vacuum.

The procedure of data set [2]: Virgin hair (5.0 g) were washed with 10% SLES solution and rinsed with plain water. The tresses were treated for exactly 5.0 minutes with clear shampoo (containing 2% β,β′-di (p-methoxy cinnamidopropyldimethylammonium chloride) ethyl ether) as described in Example I that was diluted five times with water. After the treatment the tresses were washed thoroughly with copious amount of water. The adsorbed quaternary was extracted from the hair surface by immersing each tress in isopropanol at 65° C. for 30 minutes. A known volume of this isopropanol/quaternary ammonium salt mixture was analysed by UV-spectroscopy to determine its absorption intensity.

The procedure of data set [3]: The major ingredients were mixed with heating to 50° C. until a uniform homogenous mixture was formed. The resulting mixture was then cooled to room temperature with continuous stirring. The required chelating agent, colour, perfume were added. The viscosity was adjusted to 2500 cps with sodium chloride.
The substantivity experiment was performed as described under;
All ingredients were heated together under stirring to 70° C. till the reaction mass became homogenous and transparent. The reaction mass was cooled to 40° C. and the required amounts of chelating agents, perfume and colour were added. The molten mass was cast in moulds of desired shape to yield transparent bathing bar.
The source holds these as a separate data set.

For data set [4] the following is noted: solid after removal of water.
Method: For purposes of the present application, water-soluble compounds are defined as being soluble in water at levels above 15% w/w.
p-Methoxy cinnamidopropyldimethylamine (263.0 g, 1.0 mole) and bis-(2-dichloroethyl)ether (71.5 g, 0.5 mole) and deionised water (334.5 ml) were charged in a pressure reactor. The air inside was flushed out by purging nitrogen. The reaction mixture was then stirred at 115° C. (pressure 3 kg/cm^2) for 36 hours. The progress of the reaction was followed by analysing the chloride content.

Read-outs that look alike come from different tables or passages of the source.

We go through two compounds from US6426435B1, “Substantive water-soluble bis-quaternary salts of cinnamidoalkylamines” (Galaxy Surfactants Ltd., priority 2000, dated 2002).

In the case of `COc1ccc(C=CC(=O)NCCC[N+](C)(C)CCOCC[N+](C)(C)CCCNC(=O)C=Cc2ccc(OC)cc2)cc1.[Cl-].[Cl-]` [β,β′-di(p-Methoxy Cinnamidopropyldimethylammonium Chloride) Ethyl Ether], the “molar extinction coefficient, ε” value is 42,000 in data set [1] and 42,729 in data set [1] (in aqueous solution at 292 nm λmax). The substantivity was 22 mg/100 g of hair in data set [2] (clear shampoo of Example III containing 2% compound, diluted five times with water, 5.0 minutes treatment) and 20 mg /100 g of hair in data set [2] (transparent bathing bar of Example V (2.0% compound), procedure of Example III). Also, the “deposition of quaternary on cotton fabric (substantivity)” value in data set [2] (detergent powder of Example VII (2.0% compound)) is 21 mg/100 g of cotton fabric. For the same compound, the “compatibility with anionic surfactant” value was “total compatibility” in data set [3] (transparent bathing bar of Example V, transparency unaffected) and “completely compatible” in data set [3] (transparent shampoo of Example III (SLES-2)). This compound registered a water solubility in data set [4] of more than 50%.

Regarding `COc1ccc(C=CC(=O)NCCCN(C)C)cc1` [p-Methoxy Cinnamidopropyldimethylamine], the “molar extinction coefficient, ε” value in data set [1] (in methanol, at 290 nm, in M-1·cm-1 (unit assumed)) is 24,224.
